Data published in publication PMC8409970, “In vitro and in silico studies of bis (indol-3-yl) methane derivatives as potential α-glucosidase and α-amylase inhibitors” (Journal of Enzyme Inhibition and Medicinal Chemistry, 2021).

What was measured:
α-glucosidase = α-glucosidase (Saccharomyces cerevisiae, UniProt P53341); test: Inhibition mechanism study of α-glucosidase inhibitor (enzyme concentration plots, Lineweaver-Burk plots); format: biochemical; details: for Inhibition type against α-glucosidase: Lineweaver-Burk plots; for KIS value (μM) against α-glucosidase: binding of inhibitor to enzyme-substrate complex; for Reversibility of α-glucosidase inhibition: plots of enzyme concentration vs remaining enzyme activity
Method: The relationship of enzyme concentration with enzyme activity in presence of compounds 5e, 5 g, and 5 h was firstly investigated.
The inhibitory kinetics of compounds 5e, 5 g, and 5 h on α-glucosidase were studied using Lineweaver-Burk plots.
Besides, we also determined the equilibrium constants of binding of inhibitors to free enzymes (KI) and enzyme-substrate complexes (KIS) through plots of slope (Km/Vm) and vertical intercept (1/Vm) vs inhibitor concentration.
(§1) The inhibition mechanism of compounds 5 g, 5e, and 5 h was analysed using similar above method. The enzyme inhibitory kinetics was detected using plots of enzyme concentration vs remaining enzyme activity at different inhibitor concentrations, and the substrate inhibitory kinetics was obtained from Lineweaver-Burk plot of remaining enzyme activity vs substrate concentration in the presence of different inhibitor concentrations.[32]

HepG2 cells = test: In vitro cytotoxicity assay (MTT) on HepG2 cells; format: cell-based, Human; details: 20 ∼ 80 μM, 24 h
Method: (§2) Moreover, the preliminary in vitro safety of compounds 5e, 5 g, 5 h, and 5 s were tested on Mouse Preadipocytes cells (3T3-L1) and Human liver cancer cells (HepG2) using MTT method and the results were shown in Figure 11.
(§3) The 3T3-L1 cells or HepG2 cells were cultured in DMEM medium containing 10% foetal bovine serum, 100 U/mL penicillin and 0.1 mg/mL streptomycin in a humidified incubator with a 5% CO2 atmosphere at 37 °C. Cells in the logarithmic growth phase were used for this assay. After 5 × 10^3 3T3-L1 cells were seeded in 96 well plates for 24 h, compound with different concentration was added into each well for 24 h. MTT reagent (100 μL, 0.5 mg/mL) was added to each well for 4 h incubation. After the supernatant was discarded, 100 μL of DMSO was added. The absorbance was measured at 490 nm. Each sample was performed in 3 parallel experiments.

3T3-L1 cells = test: In vitro cytotoxicity assay (MTT) on 3T3-L1 cells; format: cell-based, Mouse; details: 20 ∼ 80 μM, 24 h
Method: as §2, §3

α-amylase = target: T1, α-amylase (Sus scrofa, UniProt P00690); test: Inhibition mechanism study of α-amylase inhibitor (enzyme concentration plots, Lineweaver-Burk plots); format: biochemical; details: for Inhibition type against α-amylase: Lineweaver-Burk plots; for KIS value (μM) against α-amylase: binding of inhibitor to enzyme-substrate complex; for Reversibility of α-amylase inhibition: plots of enzyme concentration vs remaining enzyme activity
T1 sequence (P00690 16-511): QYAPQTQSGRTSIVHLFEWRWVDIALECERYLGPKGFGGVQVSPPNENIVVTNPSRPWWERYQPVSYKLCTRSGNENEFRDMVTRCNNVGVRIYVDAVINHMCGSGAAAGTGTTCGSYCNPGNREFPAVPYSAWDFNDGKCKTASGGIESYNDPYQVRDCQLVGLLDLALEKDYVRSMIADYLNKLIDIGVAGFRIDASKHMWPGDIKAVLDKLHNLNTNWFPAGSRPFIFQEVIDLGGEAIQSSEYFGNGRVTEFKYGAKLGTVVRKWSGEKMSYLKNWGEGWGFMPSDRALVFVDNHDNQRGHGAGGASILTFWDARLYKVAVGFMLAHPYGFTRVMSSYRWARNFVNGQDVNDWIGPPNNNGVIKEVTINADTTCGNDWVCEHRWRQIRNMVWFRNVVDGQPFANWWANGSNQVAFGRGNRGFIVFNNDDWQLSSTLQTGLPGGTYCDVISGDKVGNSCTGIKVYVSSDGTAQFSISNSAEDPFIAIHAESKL
Method: The highest potent inhibitory compounds 5 g, 5 h, and 5 s were evaluated their inhibition mechanism. […] Lineweaver-Burk plots were used to analyse the inhibitory kinetics of compounds 5 g, 5 h, and 5 s. […] Besides, the KI and KIS values of compounds 5 g, 5 h, and 5 s were measured, showing KI values were higher than KIS values (Table 3).
as §1, with “5 h,” for “5e,”, “5S” for “5 h”, “also analysed.” for “analysed using similar above method.”, “concentrations.” for “concentrations.[32]”

α-glucosidase, sequence (P53341 whole entry): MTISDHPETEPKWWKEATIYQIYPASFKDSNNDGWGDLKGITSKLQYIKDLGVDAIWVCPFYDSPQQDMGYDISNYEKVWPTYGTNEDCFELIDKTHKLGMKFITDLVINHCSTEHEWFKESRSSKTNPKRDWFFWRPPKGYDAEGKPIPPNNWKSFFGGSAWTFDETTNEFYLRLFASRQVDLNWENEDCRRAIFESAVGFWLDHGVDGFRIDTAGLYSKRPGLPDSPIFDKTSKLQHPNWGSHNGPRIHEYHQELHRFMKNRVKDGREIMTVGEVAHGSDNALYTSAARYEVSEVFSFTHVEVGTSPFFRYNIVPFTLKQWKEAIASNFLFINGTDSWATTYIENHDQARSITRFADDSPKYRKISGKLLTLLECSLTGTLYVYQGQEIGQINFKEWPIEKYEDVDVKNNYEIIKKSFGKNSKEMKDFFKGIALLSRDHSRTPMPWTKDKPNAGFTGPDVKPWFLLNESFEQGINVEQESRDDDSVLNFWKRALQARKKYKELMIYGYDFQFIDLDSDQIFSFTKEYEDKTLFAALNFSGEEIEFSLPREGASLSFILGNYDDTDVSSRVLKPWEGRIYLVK

Cn1cc(C(C#N)c2cn(C)c3ccccc23)c2ccccc21 [Compound 5r, 2,2-Bis(1-methyl-1H-indol-3-yl)acetonitrile]
melting point: 70.3 to 74.6 °C

N#CC(c1c(-c2ccccc2)[nH]c2ccccc12)c1c(-c2ccccc2)[nH]c2ccccc12 [Compound 5h, 2,2-Bis(2-phenyl-1H-indol-3-yl)acetonitrile]
Inhibition type against α-glucosidase (α-glucosidase): Mixed type | Inhibition type against α-glucosidase (α-glucosidase; listed as 5 h): mixed-type inhibitors | KIS value (μM) against α-glucosidase (α-glucosidase): 1.69 µM | Reversibility of α-glucosidase inhibition (α-glucosidase): reversible | melting point: 112 to 117.9 °C | Effect on the viability of HepG2 cells (HepG2 cells): no effect on the viability | Effect on the viability of 3T3-L1 cells (3T3-L1 cells): no effect on the viability | Inhibition type against α-amylase (α-amylase): Mixed type | Inhibition type against α-amylase (α-amylase; listed as 5 h): mixed inhibitors | KIS value (μM) against α-amylase (α-amylase): 1.63 µM | Reversibility of α-amylase inhibition (α-amylase): reversibly inhibited

N#CC(c1c[nH]c2ccccc12)c1c[nH]c2ccccc12 [Compound 5a, 2,2-Di(1H-indol-3-yl)acetonitrile]
melting point: 173.9 to 178.3 °C

N#CC(c1c[nH]c2cc(Cl)ccc12)c1c[nH]c2cc(Cl)ccc12 [Compound 5e, 2,2-Bis(6-chloro-1H-indol-3-yl)acetonitrile]
Inhibition type against α-glucosidase (α-glucosidase): mixed-type inhibitors | KIS value (μM) against α-glucosidase (α-glucosidase): 2.11 µM | Reversibility of α-glucosidase inhibition (α-glucosidase): reversible | melting point: 175.6 to 178.2 °C | Effect on the viability of HepG2 cells (HepG2 cells): no effect on the viability | Effect on the viability of 3T3-L1 cells (3T3-L1 cells): no effect on the viability

Cc1cccc2[nH]cc(C(C#N)c3c[nH]c4cccc(C)c34)c12 [Compound 5j, 2,2-Bis(4-methyl-1H-indol-3-yl)acetonitrile]
melting point: 246.2 to 250.1 °C

N#CC(c1c[nH]c2ccc(Cl)cc12)c1c[nH]c2ccc(Cl)cc12 [Compound 5d, 2,2-Bis(5-chloro-1H-indol-3-yl)acetonitrile]
melting point: 168 to 173.4 °C

Cc1ccc2[nH]cc(C(C#N)c3c[nH]c4ccc(C)cc34)c2c1 [Compound 5k, 2,2-Bis(5-methyl-1H-indol-3-yl)acetonitrile]
melting point: 205.1 to 210.1 °C

N#CC(c1c[nH]c2cccc(Cl)c12)c1c[nH]c2cccc(Cl)c12 [Compound 5c, 2,2-Bis(4-chloro-1H-indol-3-yl)acetonitrile]
melting point: 230 to 235.8 °C

COC(=O)CNc1ccc(C(C#N)c2ccc(NCC(=O)OC)cc2)cc1 [Compound 7c, Dimethyl 2,2’-(((cyanomethylene)bis(4,1-phenylene))bis(azanediyl))diacetate]
melting point: 135.7 to 140.8 °C

N#CC(c1c[nH]c2c(Cl)cccc12)c1c[nH]c2c(Cl)cccc12 [Compound 5f, 2,2-Bis(7-chloro-1H-indol-3-yl)acetonitrile]
melting point: 162.2 to 168.8 °C

Cc1cccc2c(C(C#N)c3c[nH]c4c(C)cccc34)c[nH]c12 [Compound 5m, 2,2-Bis(7-methyl-1H-indol-3-yl)acetonitrile]
melting point: 214.1 to 219.4 °C

COC(=O)c1ccc2[nH]cc(C(C#N)c3c[nH]c4ccc(C(=O)OC)cc34)c2c1 [Compound 5q, Dimethyl 3,3'-(cyanomethylene)bis(1H-indole-5-carboxylate)]
melting point: 259.6 to 266.9 °C

Cc1[nH]c2ccc(F)cc2c1C(C#N)c1c(C)[nH]c2ccc(F)cc12 [Compound 5n, 2,2-Bis(5-fluoro-2-methyl-1H-indol-3-yl)acetonitrile]
melting point: 183.4 to 188 °C

N#CC(c1c[nH]c2ccc(Br)cc12)c1c[nH]c2ccc(Br)cc12 [Compound 5g, 2,2-Bis(5-bromo-1H-indol-3-yl)acetonitrile]
Inhibition type against α-glucosidase (α-glucosidase): Mixed type | Inhibition type against α-glucosidase (α-glucosidase; listed as 5 g): mixed-type inhibitors | KIS value (μM) against α-glucosidase (α-glucosidase): 1.59 µM | Reversibility of α-glucosidase inhibition (α-glucosidase): reversible | Effect on the viability of HepG2 cells (HepG2 cells): no effect on the viability | Effect on the viability of 3T3-L1 cells (3T3-L1 cells): no effect on the viability | Inhibition type against α-amylase (α-amylase): Mixed type | Inhibition type against α-amylase (α-amylase; listed as 5 g): mixed inhibitors | KIS value (μM) against α-amylase (α-amylase): 25.02 µM | Reversibility of α-amylase inhibition (α-amylase): reversibly inhibited

Cc1ccc2[nH]c(C)c(C(C#N)c3c(C)[nH]c4ccc(C)cc34)c2c1 [Compound 5o, 2,2-Bis(2,5-dimethyl-1H-indol-3-yl)acetonitrile]
melting point: 231.2 to 236.4 °C

Cc1[nH]c2ccccc2c1C(C#N)c1c(C)[nH]c2ccccc12 [Compound 5i, 2,2-Bis(2-methyl-1H-indol-3-yl)acetonitrile]
melting point: 231.2 to 236.6 °C

CCOC(=O)CNc1ccc(C(C#N)c2ccc(NCC(=O)OCC)cc2)cc1 [Compound 7b, Diethyl 2,2’-(((cyanomethylene)bis(4,1-phenylene))bis(azanediyl))diacetate]
melting point: 87.5 to 93.4 °C

Cn1cc(C(C#N)c2cn(C)c3ccc(Br)cc23)c2cc(Br)ccc21 [Compound 5s, 2,2-Bis(5-bromo-1-methyl-1H-indol-3-yl)acetonitrile]
melting point: 177.7 to 181.7 °C | Effect on the viability of HepG2 cells (HepG2 cells): no effect on the viability | Effect on the viability of 3T3-L1 cells (3T3-L1 cells): no effect on the viability | Inhibition type against α-amylase (α-amylase): Mixed type | Inhibition type against α-amylase (α-amylase; listed as 5 s): mixed inhibitors | KIS value (μM) against α-amylase (α-amylase): 9.01 µM | Reversibility of α-amylase inhibition (α-amylase): reversibly inhibited

COc1ccc2[nH]cc(C(C#N)c3c[nH]c4ccc(OC)cc34)c2c1 [Compound 5p, 2,2-Bis(5-methoxy-1H-indol-3-yl)acetonitrile]
melting point: 118.5 to 123 °C

N#CC(c1c[nH]c2ccc(F)cc12)c1c[nH]c2ccc(F)cc12 [Compound 5b, 2,2-Bis(5-fluoro-1H-indol-3-yl)acetonitrile]
melting point: 182.7 to 187.5 °C

Cc1ccc2c(C(C#N)c3c[nH]c4cc(C)ccc34)c[nH]c2c1 [Compound 5l, 2,2-Bis(6-methyl-1H-indol-3-yl)acetonitrile]
melting point: 178.4 to 183.7 °C
